≈ marks a conversion by molar mass, not a printed value.
How the values were obtained:
Format in all cases: cell-based
Hemolysis assay = details: human, human erythrocyte suspension, pH 7.4, 10 and 80 µg/mL
Method: Human blood samples were obtained from the Banc de Sang i Teixits de Barcelona (Barcelona, Spain) under the Catalan Department of Health. Blood was collected in tubes containing the anticoagulant EDTA-K3. Samples were centrifuged at 3000 rpm and 4 °C for 10 min (Megafuge 2.0 R, Heraeus Instruments, Hanau, Germany) to promote sedimentation, after which plasma was carefully eliminated using a Pasteur pipette. The remaining pellet was washed with PBS (pH 7.4) three times to remove residual leukocytes and platelets while concentrating erythrocytes. After the final wash, the erythrocyte pellet was resuspended in PBS (pH 7.4) at a 1:1 ratio to achieve a final erythrocyte concentration of 8 × 10^9 cells/mL.
The hemolysis assay is used to evaluate the ability of the tested compounds to disrupt erythrocyte membranes. Stock solutions of each compound were prepared in PBS (pH 7.4) at a concentration of 1 mg/mL. Volumes ranging from 10 to 80 μL were transferred into polystyrene tubes, followed by the addition of 25 µL of the erythrocyte suspension, bringing the total volume to 1 mL. The samples were incubated at room temperature under gentle rotation and subsequently centrifuged at 10,000 rpm for 5 min. The absorbance of the resulting supernatants at 540 nm (Shimadzu UV-160A, Shimadzu, Duisburg, Germany) was measured and compared with that of the positive control (erythrocytes hemolyzed with distilled water) and the negative control (erythrocytes suspension in PBS, pH 7.4).
The degree of hemolysis was determined using the following equation:Hemolysis (%) = 100 × (Abs − Abs0)/(Abs100 − Abs0) where Abs, Abs0 and Abs100 are the absorbance of the test samples, of the suspension treated with isotonic phosphate–buffered saline (PBS) and of the suspension of complete hemolysis treated with distilled water, respectively.

MCF-7 cells = assay: MTT cell viability assay, MCF-7; details: Homo sapiens, MCF7; MCF-7, MTT, 24 h
Method: (§1) The murine Swiss albino fibroblast (3T3), the immortal human keratinocyte (HaCaT), the squamous cell carcinoma (A431), the human epithelial carcinoma (HeLa) and the human breast adenocarcinoma (MCF-7) cell lines were sourced from Celltec UB (Barcelona, Spain). All cells were maintained and grown in DMEM medium (4.5 g/L glucose) supplemented with 10% (v/v) FBS, 2 mM L-glutamine, 100 U/mL penicillin and 100 μg/mL streptomycin at 37 °C, 5% CO2. Cells were routinely cultured in 75 cm^2 culture flasks and were trypsinized using trypsin-EDTA when the cells reached approximately 80%. Cell concentration in the resulting suspension was assessed using the trypan blue assay, which enables direct discrimination between viable (unstained) and non-viable (blue) cells.
(§2) T3 and HaCaT cells (1 × 10^5 cells/mL), along with A431, HeLa, and MCF-7 cells (5 × 10^4 cells/mL), were cultured at defined seeding densities in the 60 central wells of a 96-well plate. Cells were first incubated for 24 h under standard incubator conditions (5% CO2, 37 °C). After this period, the culture medium was removed, and the cells were incubated for an additional 24 h with their corresponding compound solutions (1 mg/mL) previously diluted in a minimum amount of DMF (dimethylformamide) and then in DMEM medium supplemented with 5% FBS (100 µL) at the required concentration range (20 to 250 µg/mL). Cell viability following exposure to the lactam derivatives was evaluated using two complementary assays: NRU and MTT.
(§3) Only living cells can reduce the yellow tetrazolium salt 3-(4,5-dimethyl-2-thiazolyl)-2,5-diphenyltetrazolium bromide (MTT) to insoluble purple formazan crystals. After a 24 h incubation of the cells with their corresponding NPs, the medium was removed and 100 µL of MTT (Sigma-Aldrich, St. Louis, MO, USA) in PBS (5 mg/mL) diluted 1:10 in culture medium without phenol red and without FBS (Lonza, Verviers, Belgium) was added to the cells. After 3 h of incubation, the medium was removed. Thereafter, 100 µL of DMSO (Sigma-Aldrich, St. Louis, MO, USA) was added to each well to dissolve the purple formazan crystals. Agitation and absorbance measurements of the extracted solution were carried out under the same conditions described for the NRU assay. The effect of each treatment was then expressed as the percentage of tetrazolium salt reduction by viable cells relative to untreated controls.
(§4) The half-maximal inhibitory concentration (IC50) values for the different formulations, across cell lines and experimental endpoints, were obtained by fitting the concentration-dependent viability curves. […] These findings reflect the very low cytotoxicity of the compounds toward these cell lines.

HeLa cells = assay: MTT cell viability assay, HeLa; details: Homo sapiens, 24 h
Method: as §1, §2, §3, §4

3T3 cells = assay: NRU cell viability assay, 3T3; details: Mus musculus, NIH3T3; 3T3, NRU, 24 h
Method: as §1, §2
The neutral red uptake (NRU) assay is based on the accumulation of dye in the lysosomes of viable cells. After the cells were incubated for 24 h with the corresponding systems, the medium was removed, and the solutions were incubated with the NR dye (Sigma-Aldrich, St. Louis, MO, USA) solution (50 µg/mL) dissolved in the medium, without FBS and without phenol red (Lonza, Verviers, Belgium), for 3 h. Cells were then washed with sterile PBS, followed by the addition of 100 µL of a solution containing 50% absolute ethanol and 1% acetic acid in distilled water to extract the dye. To promote the total dissolution of the dye, plates were placed in a microtiter-plate shaker for 5 min at room temperature. The absorbance of the resulting solutions was measured at 550 nm (Bio-Rad 550 microplate reader, Bio-Rad California, Hercules, CA, USA). Finally, the effect of each treatment was calculated as the percentage of dye uptake by viable cells relative to the control cells (cells without any treatment). […]

What does the source list for C[C@@H]1CN([C@@H](C)c2ccccc2)C(=O)C1(Cl)Cl [Compound 3, (R)-3,3-dichloro-4-methyl-1-((S)-1-phenylethyl)pyrrolidin-2-one]?
hemolysis (Hemolysis assay): < 2%; IC50 (MCF-7 cells): 193 µg/mL (≈ 708 µM); IC50 (HeLa cells): 184 µg/mL (≈ 675 µM); IC50 (3T3 cells): 65 µg/mL (≈ 239 µM)

What does the source list for C[C@H](c1ccccc1)N1C[C@H](C)C(Cl)(Cl)C1=O [Compound 4]?
hemolysis (Hemolysis assay): < 2%; IC50 (MCF-7 cells): 77.8 µg/mL (≈ 286 µM); IC50 (HeLa cells): 94.3 µg/mL (≈ 346 µM); IC50 (3T3 cells): 173 µg/mL (≈ 634 µM)

Source: article PMC12736018, “Stereoselective Cytotoxicity of Enantiopure 3,3-Dichloro-γ-lactams: Correlating In Vitro Activity with In Vivo Tolerability” (Molecules, 2025)
